Measured values published in article PMC12677653, “Inhibition of Tumor Lipogenesis and Growth by Peptide‐Based Targeting of SREBP Activation” (Advanced Science, 2025).

What was measured:
[1] = Safety in mice: H&E staining of organs and blood examination; format: in vivo; conditions: given iv as LNPs, 10 mg/kg
Procedure: c-k) The LNP@Insig1/2 loop 1 peptide or PBS (control) was administered intravenously to 6-week-old nude mice (n = 4 per group) at a dose of 10 mg kg^-1 body weight. (c)Mice heart, liver, spleen, lung and kidney were harvested for H&E staining (scale bar: 50 μm). Mouse blood was collected for (d) ALT, (e) AST, (f) ALB, (g) ALP, (h) BUN, (i) UA, (j) CR, (k) CK analysis. ALT, alanine aminotransferase; AST, aspartate transaminase; ALB, albumin; ALP, alkaline phosphatase; BUN, blood urea nitrogen; UA, uric acid; CR, creatinine; CK, creatine kinase. Data are expressed as mean ± SD. Comparisons between the two groups were performed using Student's t-test.

Huh7 cells = assay: Cell proliferation, Huh7; format: cell-based, human; conditions: peptide 25 µM 1 h, IGF1 100 ng/mL 72 h, automated cell counting, n = 3
Hep3B cells = assay: Triglyceride (TG) detection assay, Hep3B; format: cell-based, human; conditions: peptide 25 μM, IGF1 100 ng/mL 24 h, n = 3
Procedure: Cells were harvested and processed for triglyceride (TG) quantification using the Amplex Red Triglyceride Assay Kit (Beyotime, Catalog No. S0129S) according to the manufacturer's instructions. Briefly, collect 1 million cells and add 200 µL of isopropanol. Centrifuge at 12 000 × g for 3–5 min at 4 °C, and collect the supernatant for subsequent analysis. Dilute the supernatant tenfold with assay buffer, and then add 50 µL of the diluted sample to a 96‐well black plate, add 2 µL of lipase, and mix thoroughly. Incubate at 37 °C for 20 min. Then, add 50 µL of the triglyceride detection working solution and mix well, incubate at 37 °C for 60 min in the dark. Set the excitation wavelength to 560 nm and the emission wavelength to 590 nm to measure the fluorescence intensity.
f) Intracellular triglyceride (TG) content was quantified in Hep3B cells pretreated with Insig1/2 loop 1 peptide (25 μM) and stimulated with IGF1 (100 ng ml⁻¹) for 24 h.

[2] = system: HCT116 human colon cancer cells; assay: Cell proliferation / cell death, HCT116; format: cell-based; conditions: concentration gradient of peptide, OD measurement (Figure S1i)
Procedure: Cells were seeded in 96‐well plates at a density of 5000 cells per well in 100 µL complete growth medium. Following a 24‐hour incubation period (37 °C, 5% CO2) to permit cell adherence, the culture medium was replaced with fresh low serum contained complete medium containing either Insig1/2 loop1 peptide (0–100 µM concentration range) or PBS. Cells were maintained under these conditions for 72 hours. After treatment, the culture medium was carefully aspirated, and cells were washed twice with 200 µL phosphate‐buffered saline (PBS, pH 7.4). Fixed was performed using 4% paraformaldehyde (100 µL/well) for 15 min at room temperature, followed by three PBS washes (200 µL/well) to remove residual fixative. 0.1% (w/v) crystal violet staining solution was prepared by dissolving crystal violet powder in 10% ethanol, followed by filtration through a 0.22 µm membrane. Each well received 80 µL of staining solution and was incubated for 15 min at room temperature, protected from light. […] Plates were agitated at 200 rpm for 10 min to ensure complete dissolution before measuring absorbance at 582 nm using a microplate reader. […]
i-k) (i) HCT116, (j) Huh7, and (k) Hep3B cells were exposed to a concentration gradient of Insig1/2 loop1 peptide, and cell proliferation was quantified by optical density (OD) measurements.

[3] = system: lipid levels, Ki67, Insig1 pS207/Insig2 pS151; assay: Oil Red O and IHC of tumors from high-fat diet mice; format: in vivo, nude mice; conditions: orthotopic Huh7, high-fat diet, IHC; semaglutide 30 nmol/kg ip daily and/or LNP peptide 10 mg/kg iv
Procedure: Figure 5 The Insig1/2 loop 1 peptide in combination with semaglutide treatment induces an additive tumor inhibitor effect. a–c) Huh7 cells were orthotopically injected into the liver of nude mice (n = 7 per group). Treatment groups received intravenous injections of LNP@Insig1/2 loop 1 peptide (10 mg kg^−1, every other day), and/or intraperitoneal injection of Semaglutide (30 nmol kg^−1, daily). (a) Representative optical images of tumors, (b) tumor weights, data are expressed as mean ± SD, statistical significance was determined by one‐way analysis of variance (ANOVA), and (c) survival analysis was performed using Kaplan‐Meier curves. Statistical significance was determined by Log‐rank (Mantel‐Cox) test. d) Cryosections of mouse tumor tissues were prepared, and lipid accumulation was assessed by Oil Red O staining. […] Quantitative analysis of lipid droplet counts (Oil Red O‐positive particles) was performed. Data are expressed as mean ± SD (n = 3). Statistical significance was determined by one‐way analysis of variance (ANOVA). e) Immunohistochemical (IHC) analysis of mouse tumor specimens was performed using the Ki67 antibody. […] Data are expressed as mean ± SD (n = 3). Statistical significance was determined by one‐way analysis of variance (ANOVA). f) Immunohistochemical (IHC) analysis of mouse tumor specimens was performed using the Insig1 pS207/Insig2 pS151 antibody. […]

## RKKRRQRRRLYPCIDSHLGEPHKFKRE [Insig1/2 loop 1 peptide]
[1]
  toxicity (overall conclusion): limited toxicity
Huh7 cells
  IGF1-induced increase in proliferation: inhibited
Hep3B cells
  IGF1-induced increase in triglycerides (TGs): reduced
[2]
  cell death: induced cell death
[3]
  high-fat diet-enhanced Insig1 S207 and Insig2 S151 phosphorylation in tumors: reduced
